In patent US20230091047A1 (priority 2019, published 2023):
Read-outs that look alike come from different tables or passages of the source.

Key:
[1] = test system: HBV (HepG2.117 cell line, inducibly HBV producing); experiment: Anti-HBV activity: intracellular HBV DNA by real-time PCR in HepG2.117 cells after 3 days of treatment; assay type: cell-based, hepatitis B virus
Method: The anti HBV activity was measured using the HepG2.117 cell line, a stable, inducibly HBV producing cell line, which replicates HBV in the absence of doxycycline (Tet-off system). The HepG2 cell line is available from ATCCR under number HB-8065. Transfection of the HepG2 cell line can be as described in Sun and Nassal 2006 Journal of Hepatology 45 (2006) 636-645 “Stable HepG2- and Huh7-based human hepatoma cell lines for efficient regulated expression of infectious hepatitis B virus”.
For the antiviral assay, HBV replication was induced, followed by a treatment with serially diluted compound in 96-well plates. After 3 days of treatment, the antiviral activity was determined by quantification of intracellular HBV DNA using real-time PCR and an HBV specific primer set and probe.

[2] = in vitro; assay type: cell-based; conditions: human, HepG2 or HepG2.117 cells, mean value
Method: Cytotoxicity of the compounds was tested using HepG2 or HepG2.117 cells, incubated for 3 or 4 days in the presence of compounds. The viability of the cells was assessed using the PERKIN ELMER ATPlite Luminescence Assay System.”

[3] = Hepatitis B virus, HepG2.117, 72 h, HepG2.117 cells, intracellular HBV DNA by real-time PCR, 3 days of treatment, mean value; read-out: EC50 (μM, mean value)
[4] = ATPlite, 3-days incubation (not marked with *)
[5] = Hepatitis B virus, HepG2.117, 72 h, HepG2.117 cells, 3 days of treatment, intracellular HBV DNA by real-time PCR; mean value; read-out: EC50 (μM, mean value)
[6] = 3-days incubation (unmarked values), ATPlite
[7] = 3-days incubation (unmarked values), ATPlite viability

| Structure (SMILES) | EC50 [1, 3] [µM] | CC50 at 3 days [2, 4] [µM] | EC50 [1, 5] [µM] | CC50 at 3 days [2, 6] [µM] | CC50 at 3 days [2, 7] [µM] |
| --- | --- | --- | --- | --- | --- |
| CNC(=O)c1ccc(-n2c(NCC3(C)CC3)nc3c(c2=O)C[C@@H](C)N(C(=O)c2ccc(Cl)c(Cl)c2)C3)cc1 [Compound C381] | 0.95 | 31.8 |  |  |  |
| CCOC(=O)[C@H]1CC[C@@H](n2c(NC(C)C)nc3c(c2=O)C[C@@H](C)N(C(=O)c2ccc(Cl)c(Cl)c2)C3)CC1 [Compound C273, ethyl cis-4-[(6R)-7-(3,4-dichlorobenzoyl)-6-methyl-4-oxo-2-[(propan-2-yl)amino]-5,6,7,8-tetrahydropyrido[3,4-d]pyrimidin-3(4H)-yl]cyclohexane-1-carboxylate] |  |  | 0.31 | 33.4 |  |
| CC(C)Nc1nc2c(c(=O)n1-c1ccc(N3CC(=O)N(C)C3)cc1)C[C@@H](C)N(C(=O)c1ccc(Cl)c(Cl)c1)C2 [Compound C202, (6R)-7-(3,4-dichlorobenzoyl)-6-methyl-3-[4-(3-methyl-4-oxoimidazolidin-1-yl)phenyl]-2-[(propan-2-yl)amino]-5,6,7,8-tetrahydropyrido[3,4-d]pyrimidin-4(3H)-one] |  |  | 0.19 | > 50 |  |
| CNC(=O)c1ccc(-n2c(N[C@@H](C)c3ccc(C(F)(F)F)cc3)nc3c(c2=O)C[C@@H](C)N(C(=O)c2ccc(Cl)c(C(F)F)c2)C3)cc1 [Compound C628] | 0.05 | 23.2 |  |  |  |
| CNC(=O)c1ccc(-n2c(N3CC4CC3C4)nc3c(c2=O)C[C@@H](C)N(C(=O)c2ccc(Cl)c(C(F)(F)F)c2)C3)c(Cl)c1 (single isomer, unassigned) [Compound C701a] |  |  | 0.04 |  | > 50 |
| CNC(=O)c1ccc(-n2c(N[C@H](C)c3nc[nH]n3)nc3c(c2=O)C[C@@H](C)N(C(=O)c2ccc(Cl)c(Cl)c2)C3)cc1 (single isomer, unassigned) [Compound C439a] | > 10 | > 50 |  |  |  |
| CNC(=O)c1cnc(-n2c(NC(C)C)nc3c(c2=O)C[C@@H](C)N(C(=O)c2ccc(Cl)c(C(F)(F)F)c2)C3)cn1 [Compound C695] |  |  | 0.04 |  | > 50 |
| CNC(=O)c1ccc(-n2c(NC(C)C)nc3c(c2=O)C[C@@H](C)N(C(=O)c2cc4c(Br)c(C)ccc4[nH]2)C3)cc1 [Compound C471] | 0.25 | 21.6 |  |  |  |
| CC(C)Nc1nc2c(c(=O)n1-c1ccc(S(C)(=O)=O)cc1)CCN(C(=O)c1nc3ccc(Cl)cc3[nH]1)C2 [Compound C163, 7-(6-chloro-1H-benzimidazole-2-carbonyl)-3-[4-(methanesulfonyl)phenyl]-2-[(propan-2-yl)amino]-5,6,7,8-tetrahydropyrido[3,4-d]pyrimidin-4(3H)-one] |  |  | 4.45 | > 50 |  |
| COc1ccc(CNc2nc3c(c(=O)n2C(C)C)CCN(C(=O)c2ccc(Cl)c(Cl)c2)C3)cc1 [Compound C72, 7-(3,4-dichlorobenzoyl)-2-{[(4-methoxyphenyl)methyl]amino}-3-(propan-2-yl)-5,6,7,8-tetrahydropyrido[3,4-d]pyrimidin-4(3H)-one] |  |  | 2.77 | 40 |  |
| CNC(=O)c1ccc(-n2c(NC3CCC34CCC4)nc3c(c2=O)C[C@@H](C)N(C(=O)c2ccc(Cl)c(Cl)c2)C3)cc1 (stereo partly drawn) [Compound C347, 4-[(6R)-7-(3,4-dichlorobenzoyl)-6-methyl-4-oxo-2-[(spiro[3.3]heptan-1-yl)amino]-5,6,7,8-tetrahydropyrido[3,4-d]pyrimidin-3(4H)-yl]-N-methylbenzamide] |  |  | 0.27 | 24.2 |  |
| CNC(=O)c1noc2cc(-n3c(NC(C)C)nc4c(c3=O)C[C@@H](C)N(C(=O)c3ccc(Cl)c(Cl)c3)C4)ccc12 [Compound C638] | 0.14 | > 50 |  |  |  |
| CNC(=O)c1ccc(-n2c(N[C@@H](C)c3ccncc3)nc3c(c2=O)C[C@@H](C)N(C(=O)c2ccc(Cl)c(Cl)c2)C3)cc1 (single isomer, unassigned) [Compound C375b] |  |  | 0.62 | > 50 |  |
| CNC(=O)c1ccc(-n2c(NCc3cc(C(F)F)no3)nc3c(c2=O)C[C@@H](C)N(C(=O)c2ccc(Cl)c(Cl)c2)C3)cc1 [Compound C554] | 1.77 | > 50 |  |  |  |
| COc1cc(-n2c(NC(C)C)nc3c(c2=O)CCN(C(=O)c2ccc(Cl)c(Cl)c2)C3)cc(S(C)(=O)=O)c1 [Compound C88, 7-(3,4-dichlorobenzoyl)-3-[3-(methanesulfonyl)-5-methoxyphenyl]-2-[(propan-2-yl)amino]-5,6,7,8-tetrahydropyrido[3,4-d]pyrimidin-4(3H)-one] |  |  | 4.99 | > 50 |  |
| CNC(=O)c1ccc(-n2c(NC(C)c3cn(C)nn3)nc3c(c2=O)C[C@@H](C)N(C(=O)c2ccc(Cl)c(Cl)c2)C3)cc1 (stereo partly shown) [Compound C489] | > 25 | > 50 |  |  |  |
| COc1ccc(CNc2nc3c(c(=O)[nH]2)CCN(C(=O)c2ccc4occc4c2)C3)cc1 [Compound C81, 7-(1-benzofuran-5-carbonyl)-2-{[(4-methoxyphenyl)methyl]amino}-5,6,7,8-tetrahydropyrido[3,4-d]pyrimidin-4(3H)-one] |  |  | 4.49 | > 50 |  |
| CNC(=O)c1ccc(-n2c(N[C@@H](C)c3ccc(OC(F)(F)F)cc3)nc3c(c2=O)C[C@@H](C)N(C(=O)c2ccc(Cl)c(Cl)c2)C3)cn1 [Compound C537] | 0.08 | > 50 |  |  |  |
| CNC(=O)c1ccc(-n2c(NC(C)C)nc3c(c2=O)C[C@@H](C)N(C(=O)c2ccc(Cl)c(Cl)c2)C3)cc1 [Compound C157, 4-[(6R)-7-(3,4-dichlorobenzoyl)-6-methyl-4-oxo-2-[(propan-2-yl)amino]-5,6,7,8-tetrahydropyrido[3,4-d]pyrimidin-3(4H)-yl]-N-methylbenzamide] |  |  | 0.04 | > 50 |  |
| CC(C)NC(=O)c1ccc(-n2c(NC(C)C)nc3c(c2=O)C[C@@H](C)N(C(=O)c2ccc(Cl)c(Cl)c2)C3)cn1 [Compound C227, 5-[(6R)-7-(3,4-dichlorobenzoyl)-6-methyl-4-oxo-2-[(propan-2-yl)amino]-5,6,7,8-tetrahydropyrido[3,4-d]pyrimidin-3(4H)-yl]-N-(propan-2-yl)pyridine-2-carboxamide] |  |  | 0.18 | > 50 |  |
| CNC(=O)[C@H]1CC[C@@H](n2c(NC(C)C)nc3c(c2=O)C[C@@H](C)N(C(=O)c2ccc(Cl)c(Cl)c2)C3)CC1 [Compound C280, cis-4-[(6R)-7-(3,4-dichlorobenzoyl)-6-methyl-4-oxo-2-[(propan-2-yl)amino]-5,6,7,8-tetrahydropyrido[3,4-d]pyrimidin-3(4H)-yl]-N-methylcyclohexane-1-carboxamide] |  |  | 0.1 | 24.6 |  |
| CNC(=O)c1ccc(-n2c(N[C@@H](C)c3ccccc3F)nc3c(c2=O)C[C@@H](C)N(C(=O)c2ccc(Cl)c(Cl)c2)C3)cc1 [Compound C316, 4-[(6R)-7-(3,4-dichlorobenzoyl)-2-{[(1S)-1-(2-fluorophenyl)ethyl]amino}-6-methyl-4-oxo-5,6,7,8-tetrahydropyrido[3,4-d]pyrimidin-3(4H)-yl]-N-methylbenzamide] |  |  | 0.13 | 27.8 |  |
| CC(C)Nc1nc2c(c(=O)n1-c1ccc(-c3cn[nH]c3)cc1)CCN(C(=O)c1ccc(Cl)c(Cl)c1)C2 [Compound C186, 7-(3,4-dichlorobenzoyl)-2-[(propan-2-yl)amino]-3-[4-(1H-pyrazol-4-yl)phenyl]-5,6,7,8-tetrahydropyrido[3,4-d]pyrimidin-4(3H)-one] |  |  | 0.51 | > 50 |  |
